Source: US12358867B1, “Peptoid-based inhibitors of the protein arginine methyltransferase (PRMT) family” (University of North Florida Board of Trustees, priority 2020, dated 2025)
Where two headings read alike, the source gives them in different places. Each block holds one compound with its values, some of them ahead of it. Starred links: 1 amine or outer side, 2 acyl side, 3 side chain; linkers in the order of their positions; H or OH if unused. Non-standard residues stand in square brackets, D forms with d. Residues, ends and D or L forms follow the SMILES beside them. Gly(N-(CH2)3-guanidino) = N=C(N)NCCCNCC(=O)O; X1 = N=C(CCl)NCCCN(CC(=O)[*:2])[*:1]; Gly(N-CH2CH2OH) = O=C(O)CNCCO; Nleu = CC(C)CNCC(=O)O; Nlys = NCCCCNCC(=O)O; Sar = CNCC(=O)O

Assays:
PRMT1 [1] = molecular target: T1, PRMT1 (Homo sapiens, UniProt Q99873); experiment: IC50 assay, MTase-Glo Methyltransferase assay; format: biochemical
T1 construct: made in house
Method: The efficacy of the peptoid inhibitors was probed using the MTase-Glo Methyltransferase assay kit. Various concentrations (0-1000 μM) of peptoid was incubated in assay buffer (20 mM Tris-HCl pH 8.0, 50 mM NaCl, 1 mM EDTA, 3 mM MgCl2, 0.1 mg/ml BSA, 1 mM DTT) at 37° C. for 10 min. Afterward, the inhibitor was allowed to interact with 200 nM PRMT1 for 15 min at 37° C. The reaction was catalyzed with 225 μM of AcH4-21 (a PRMT1 peptide substrate), continued for 15 min at 37° C., was quenched with the addition of 0.5% TFA (0.1% final concentration, 10 min, r.t.), followed by the addition of MTase-Glo Reagent to a final concentration of 1×. After 30-min incubation at r.t., MTase-Glo Detection Solution was added and incubated for 30 min at r.t. Luminescence signal was converted to product concentration using SAH standards (0-5 μM), following the above assay. Immediately afterwards, the luminescence signal was read with a BioTek Synergy 2 Multi-Mode Microplate Reader. IC50 values were determined by fitting the data to equation (2) using GraFit version 7.03. Fractional activity of PRMT=1/(1+([I]/IC50)) (2) where [I] is the inhibitor concentration and IC50 is the concentration of inhibitor resulting in 50% PRMT activity.
The IC50 value for the peptoid inhibitors were measured using the MTase-Glo Methyltransferase assay kit (Promega). The peptoid was incubated in assay buffer (20 mM Tris-HCl pH 8.0, 50 mM NaCl, 1 mM EDTA, 3 mM MgCl2, 0.1 mg/mL BSA, 1 mM DTT) and substrate (0-1000 μM) at either 37° C. (PRMT1) or 25° C. (PRMT5). After a pre-incubation of 10 minutes, 200 nM PRMT1 or PRMT5 was added to the assay before adding in the substrate, AcH4-21, at 225 μM. The reaction proceeded for 15 minutes before being quenched with 0.5% TFA (0.1% final concentration), vortexed, and incubated for an additional 10 minutes. To detect product formation, the MTase-Glo Reagent was added for 30 minutes at r.t., followed by addition of the MTase-Glo Detection solution for an additional 30 minutes. Finally, the luminescence signal was measured using a BioTek Synergy 2 Multi-Mode Microplate Reader. The values were converted to product concentration using a standard curve of S-adenosylhomocysteine (SAH; 0-5 μM). The IC50 values were determined using equation 1 and fit to a curve using GraFit 7.03. Fractional activity of PRMT=1/(1+([I]/IC50)) (2) IC50 is the concentration of inhibitor resulting in 50% PRMT activity and [I] is the inhibitor concentration. Cell Culture and Conditions

PRMT1 [2] = molecular target: T1, PRMT1; experiment: Km assay, MTase-Glo Methyltransferase assay (peptoid as substrate); format: biochemical; details: peptoid 0-1000 μM, 200 nM PRMT1
Method: The kinetics of each peptoid were determined using the MTase-Glo Methyltransferase assay kit to monitor the conversion of S-adenosylmethionine (SAM) to S-adenosylhomocysteine (SAH). Briefly, various concentrations (0-1000 μM) of the peptoid in assay buffer (20 mM Tris-HCl pH 8.0, 50 mM NaCl, 1 mM EDTA, 3 mM MgCl2, 0.1 mg/ml BSA, 1 mM DTT) were incubated at 37° C. After 10 min, 200 nM PRMT1 was added to initiate the reaction. The reaction proceeded for 10 min at 37° C. until quenched with the addition of 0.5% TFA (0.1% final concentration, 10 min, r.t.) followed by the addition of MTase-Glo Reagent to a final concentration of 1×. After 30 min incubating at r.t, MTase-Glo Detection Solution was added and incubated for 30 min at r.t. Immediately afterwards, the luminescence signal was read with a BioTek Synergy 2 Multi-Mode Microplate Reader. Luminescence signal was converted to product concentration using SAH standards (0-5 μM), following the above assay. The initial rates were fitted into equation (1) using GraFit version 7.03. V=Vmax[S]/(Km+[S]) (1) IC50 Assay

[3] = system: HepaRG immortalized, terminally differentiated liver cells; details: non-tumorigenic HepaRG; for growth over time course: 72 hour time course
Method: (§1) MDA-MB-468 breast carcinoma cells (ATCC; HTB132), HCT116+/+p53 colon carcinoma cells were grown in DMEM supplemented in 5% FBS. HepaRG terminally differentiated liver cell line (Thermoscientific; HPRGC10) and HepaRG-Fucci cells were grown in Williams media supplemented with Glutamax and 5% FBS and normal Human Mammary Epithelial Cells (HMEC) (ATCC; PCS-600-010) were grown in Mammary epithelial basal medium (ATCC; PCS-600-030) supplemented with mammary epithelial cell growth kit (ATCC; PCS-600-040). Cells were recovered with 0.25% trypsin-EDTA, plated on cell culture treated plates and/or coverslips according to the experimental design and incubated overnight in 37° C. humidified CO2 incubator kept at 5% CO2 (800WJ; Thermoscientific). Cells were washed twice with sterile PBS before switching to serum free treatment media along with varying concentrations of the PRMT inhibitor compound (0-40 μM).
(§2) Cell viability and growth was assessed using the crystal violet assay as described by Oliver et al., J Cell Sci, 1989). […] Cells were fixed at each time point with 100% methanol and stained with 1% crystal violet in 0.01M borate buffer (pH 8.9). Absorbance of dye eluted in 1:1 (v/v) ethanol: 0.01M HCl was checked at 650 nm by microplate reader. The cell growth rate was calculated by the following formula: Cell growth rate (%)=(A650 at n hour/A650 0 h). Each condition was tested in triplicate and repeated three independent times.

[4] = system: Human Mammary Epithelial Cells (HMEC); details: normal HMEC, 72 hour time course
Method: as §1, §2

[5] = system: caspase-3 activity in HepaRG cells; details: only at the highest dose
Method: Caspase-3 activity assay was performed on extracted protein lysates using colorimetric caspase-3 activity assay (K106; Biovision) as per manufacturer's protocol. Briefly, 50 μL of extracted protein was plated in a UV compatible 96 well plate. DEVD-pNA substrate in prepared 1× buffer was added to each sample. The plate was shaken for 10 minutes and incubated at 37° C. in Biorad plate reader and read at 405 nm every 10 minutes for 2 hours.

[6] = histone H4 peptoids, SAM 40 μM, substrate AcH4-21 225 μM, read-out: IC50
[7] = listed as unacetylated H4-16 warhead chloracetamidine peptoid

T1 sequence (Q99873 1-353 isoform Q99873-3, species assumed): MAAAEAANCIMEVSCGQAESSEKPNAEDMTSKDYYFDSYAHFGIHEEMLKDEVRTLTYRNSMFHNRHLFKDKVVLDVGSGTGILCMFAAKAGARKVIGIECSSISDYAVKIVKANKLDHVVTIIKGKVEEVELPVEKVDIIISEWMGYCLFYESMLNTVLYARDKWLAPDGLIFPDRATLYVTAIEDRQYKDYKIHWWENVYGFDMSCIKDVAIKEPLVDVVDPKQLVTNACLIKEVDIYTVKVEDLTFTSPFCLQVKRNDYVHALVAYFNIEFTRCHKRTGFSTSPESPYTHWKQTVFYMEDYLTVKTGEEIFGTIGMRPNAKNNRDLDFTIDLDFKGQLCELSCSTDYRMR

IC50 (PRMT1 [1]; [6]): > 1000 µM | modification / product turnover as PRMT1 substrate (PRMT1 [2]): low product turnover
Compound: CC(=O)N(CCO)CC(=O)NCC(=O)N(CCCNC(=N)N)CC(=O)NCC(=O)N(CCCCN)CC(=O)NCC(=O)NCC(=O)N(CCCCN)CC(N)=O [AcH4-8] (Ac-[Gly(N-CH2CH2OH)]G[Gly(N-(CH2)3-guanidino)]G[Nlys]GG[Nlys]-NH2)

Compound: CC(=O)N(CCO)CC(=O)NCC(=O)N(CCCNC(=N)N)CC(=O)NCC(=O)N(CCCCN)CC(=O)NCC(=O)NCC(=O)N(CCCCN)CC(=O)NCC(=O)N(CC(=O)NCC(=O)N(CCCCN)CC(=O)NCC(N)=O)CC(C)C [AcH4-13] (Ac-[Gly(N-CH2CH2OH)]G[Gly(N-(CH2)3-guanidino)]G[Nlys]GG[Nlys]G[Nleu]G[Nlys]G-NH2)
IC50 (PRMT1 [1]): > 1000 µM | modification / product turnover as PRMT1 substrate (PRMT1 [2]): low product turnover

Compound: CC(=O)N(CCO)CC(=O)NCC(=O)N(CCCNC(=N)N)CC(=O)NCC(=O)N(CCCCN)CC(=O)NCC(=O)NCC(=O)N(CCCCN)CC(=O)NCC(=O)N(CC(=O)NCC(=O)N(CCCCN)CC(=O)NCC(=O)NCC(=O)N(C)CC(=O)N(CCCCN)CC(N)=O)CC(C)C [AcH4-16 peptoid] (Ac-[Gly(N-CH2CH2OH)]G[Gly(N-(CH2)3-guanidino)]G[Nlys]GG[Nlys]G[Nleu]G[Nlys]GG[Sar][Nlys]-NH2)
IC50 (PRMT1 [1]): 916 ± 19.5 µM

IC50 (PRMT1 [1]; [6]): > 1000 µM
Compound: N=C(N)NCCCN(CC(=O)NCC(=O)N(CCCCN)CC(=O)NCC(=O)NCC(=O)N(CCCCN)CC(N)=O)C(=O)CNC(=O)CNCCO [Peptoid H4-8] (H-[Gly(N-CH2CH2OH)]G[Gly(N-(CH2)3-guanidino)]G[Nlys]GG[Nlys]-NH2)
inhibition of PRMT1 (PRMT1 [1]; up to 1000 μM): did not show any inhibition up to 1000 μM

Compound: CC(C)CN(CC(=O)NCC(=O)N(CCCCN)CC(=O)NCC(=O)NCC(=O)N(C)CC(=O)N(CCCCN)CC(N)=O)C(=O)CNC(=O)CN(CCCCN)C(=O)CNC(=O)CNC(=O)CN(CCCCN)C(=O)CNC(=O)CN(CCCNC(=N)CCl)C(=O)CNC(=O)CNCCO [Peptoid P2] (H-[Gly(N-CH2CH2OH)]G[X1]G[Nlys]GG[Nlys]G[Nleu]G[Nlys]GG[Sar][Nlys]-NH2)
cell viability ([3]; 0-40 μM, 48 hours): no prominent change | growth over time course [3]: no detectable effect in growth | growth over time course [3, 7]: No detectable effect in growth | growth over time course [4]: no detectable effect in growth | growth over time course [4, 7]: No detectable effect in growth | caspase-3 activity [5]: minimal activation of caspase-3 | caspase-3 activity [5, 7]: Only minimal activation of caspase-3
